{
  "source": "patent US6123959A",
  "about": "“Aqueous composition comprising active ingredients for the de-pigmentation of the skin” (Univera Pharmaceuticals, Inc., priority 1998, dated 2000)",
  "key": {"tyrosinase [1]": {"test_system": "tyrosinase", "conditions": "cited from earlier work; for mode of tyrosinase inhibition: Lineweaver Burk diagram"}, "tyrosinase [2]": {"test_system": "tyrosinase", "experiment": "in vitro tyrosinase inhibition assay (L-Dopa conversion to dopachrome, absorption at 475 nm)", "type": "biochemical", "conditions": "pH 6.8", "method": "An in vitro tyrosinase inhibition assay was carried out using a modification of the procedure described by Pomerantz […] J. Biol. Chem. 238:2351-2357. According to this method, the conversion of L-Dopa, a substrate of tyrosinase, into dopaquinone and then dopachrome is followed by monitoring absorption at 475 nm in a spectrophotometer. As the colored substance dopachrome absorbs light having a wavelength of 475 nm, a quantitative measurement of the time-related conversion and thus the activity of tyrosinase can be made.\nEach sample was prepared in a 50 mM potassium phosphate buffer which had been adjusted to pH 6.8, and stabilized by the addition of 10% DMSO. Tyrosinase (48 u, \"u\" represents the activity units of an enzyme, measured in mM substratum conversion per minute) was added to each sample. A double assessment was carried out for each inhibitor, using two different starting concentrations of L-Dopa: 0.4 mM and 0.2 mM. Controls were also run using the same concentrations of uninhibited tyrosinase to serve as the neutral value. In the control samples the volume of inhibitor was replaced with 50 mM potassium phosphate buffer. The time-related difference in absorption, and thus the conversion of L-Dopa, was followed for a period of two minutes.\nThe conversion kinetics of the tyrosinase was measured upon addition of the following concentrations of inhibitor: arbutin (0.9 mM); aloesin (0.0192 mM; 0.0385 mM and 0.0769 mM) and with the respective combination of both of the inhibitors. Enzyme inhibition was determined from the difference between the inhibited and the uninhibited kinetics. It is worth noting that the compositions examined in this example contain no liposomes, as the penetration ability and bio-availability are of no significance in an in vitro test. The purpose of these in vitro studies was to determine the efficacy of the inhibitors (arbutin and aloesin) individually and combinations thereof."}, "tyrosinase [3]": {"test_system": "tyrosinase", "conditions": "cited from earlier work"}, "skin": {"test_system": "skin", "conditions": "cited from earlier work; for quantity required to achieve a similar effect, compared to hydroquinone: relative to quantity of hydroquinone used"}, "synthesis of melanin": {"test_system": "synthesis of melanin", "conditions": "cited from earlier work"}, "tyrosinase [4]": {"test_system": "tyrosinase", "experiment": "inhibitory effect on tyrosinase of octylaloesin compared to aloesin", "type": "biochemical"}},
  "note": "Where two headings read alike, the source gives them in different places.",
  "data": [
    {"compound": "COc1cc(/C=C/C(=O)O[C@@H]2[C@@H](O)[C@H](O)[C@@H](CO)O[C@H]2c2c(O)cc(C)c3c(=O)cc(CC(C)=O)oc23)ccc1O", "note": "[2\"-O-feruloylaloesin]", "values": [
      {"measurement": "mode of tyrosinase inhibition", "setting": "tyrosinase [1]", "value": "non-competitive inhibitors"},
      {"measurement": "inhibition of tyrosinase", "setting": "tyrosinase [1]", "value": "effective inhibitors of tyrosinase"}
    ]},
    {"compound": "CC(=O)Cc1cc(=O)c2c(C)cc(O)c([C@@H]3O[C@H](CO)[C@@H](O)[C@H](O)[C@H]3O)c2o1", "note": "[aloesin]", "values": [
      {"measurement": "% Inhibition Tyrosinase", "setting": "tyrosinase [2]; aloesin 0.0192 mM", "value": 20, "unit": "%"},
      {"measurement": "% Inhibition Tyrosinase", "setting": "tyrosinase [2]; aloesin 0.0385 mM", "value": 32, "unit": "%"},
      {"measurement": "% Inhibition Tyrosinase", "setting": "tyrosinase [2]; aloesin 0.0769 mM", "value": 46, "unit": "%"},
      {"measurement": "mode of tyrosinase inhibition", "setting": "tyrosinase [1]", "value": "non-competitive inhibitors"},
      {"measurement": "inhibition of tyrosinase", "setting": "tyrosinase [1]", "value": "effective inhibitors of tyrosinase"}
    ]},
    {"compound": "OC[C@H]1O[C@@H](Oc2ccc(O)cc2)[C@H](O)[C@@H](O)[C@@H]1O", "note": "[arbutin]", "values": [
      {"measurement": "mode of tyrosinase inhibition", "setting": "tyrosinase [3]", "value": "competitive inhibitors"},
      {"measurement": "% Inhibition Tyrosinase", "setting": "tyrosinase [2]; arbutin 0.9 mM", "value": 29, "unit": "%"},
      {"measurement": "quantity required to achieve a similar effect, compared to hydroquinone", "setting": "skin", "value": "over 100 times"}
    ]},
    {"compound": "O=C1O[C@H]([C@@H](O)CO)C(O)=C1O", "note": "[ascorbic acid]", "values": [
      {"measurement": "mode of tyrosinase inhibition", "setting": "tyrosinase [3]", "value": "competitive inhibitors"},
      {"measurement": "quantity required to achieve a similar effect, compared to hydroquinone", "setting": "skin", "value": 17, "unit": "times"}
    ]},
    {"compound": "Oc1ccc(O)cc1", "note": "[hydroquinone]", "values": [
      {"measurement": "side effects", "setting": "skin; applied over long periods of time", "value": "serious side effects"},
      {"measurement": "photosensitivity of the skin", "setting": "skin; exposed to UV light", "value": "increased photosensitivity"},
      {"measurement": "de-pigmentation (persistence)", "setting": "skin; in vivo", "value": "permanent de-pigmentation"}
    ]},
    {"compound": "O=c1cc(CO)occ1O", "note": "[kojic acid]", "values": [
      {"measurement": "mode of tyrosinase inhibition", "setting": "tyrosinase [3]", "value": "competitive inhibitors"}
    ]},
    {"compound": "CC/C=C\\C/C=C\\C/C=C\\CCCCCCCC(=O)O", "note": "[linolenic acid]", "values": [
      {"measurement": "inhibition of the synthesis of melanin", "setting": "synthesis of melanin", "value": "inhibit the synthesis of melanin"}
    ]},
    {"compound": "CCCCCCCCOc1cc(C)c2c(=O)cc(CC(C)=O)oc2c1[C@@H]1O[C@H](CO)[C@@H](O)[C@H](O)[C@H]1O", "note": "[octylaloesin]", "values": [
      {"measurement": "inhibitory effect on tyrosinase compared to aloesin", "setting": "tyrosinase [4]", "value": "significantly higher inhibitory effect on tyrosinase"}
    ]}
  ]
}
